The record followed here is article PMC11995724, “Antibiotic target discovery by integrated phenotypic and activity-based profiling of electrophilic fragments” (Cell chemical biology, 2025).

Where a name gives a salt, the structure may show the parent alone.

A word on the viability: it is a read-out of living cells in per cent, often relative to untreated cells.

This data set in a line: in vitro. The settings on record: human, hek293t cells.
Regarding `CCn1ccc(CN(C)C(=O)CCl)n1` [5-K06, 2-chloro-N-[(1-ethyl-1H-pyrazol-3-yl)methyl]-N-methylacetamide], the viability at 48 h, 25 µM was 1.77%.
Then `N#Cc1ccc(OC2CN(C(=O)CCl)C2)cc1` [5-K07, 4-{[1-(2-chloroacetyl)azetidin-3-yl]oxy}benzonitrile], with 0.233%; and `CN(Cc1ccccc1)S(=O)(=O)c1ccc(NC(=O)CCl)cc1` [5-K08, N-{4-[benzyl(methyl)sulfamoyl]phenyl}-2-chloroacetamide], with 16.1%.
Next, `O=C(CCl)N1c2ccc(F)cc2NC(=O)C12CCC2` [5-K09, 1'-(2-chloroacetyl)-6'-fluoro-3',4'-dihydro-1'H-spiro[cyclobutane-1,2'-quinoxalin]-3'-one]: 0.346%; `O=C(CCl)N1CCC1c1cccc(F)c1` (centres unmarked) [5-K10, 2-chloro-1-[2-(3-fluorophenyl)azetidin-1-yl]ethan-1-one]: 28.5%.
Next, `CN(C)C(=O)c1cc2n(n1)CC1(CCN(C(=O)CCl)CC1)OC2` [5-K11, 1-(2-chloroacetyl)-N,N-dimethyl-4',7'-dihydrospiro[piperidine-4,6'-pyrazolo[3,2-c][1,4]oxazine]-2'-carboxamide]: 0.714%.
In the case of `CC(O)CN(Cc1ccc(Cl)c(F)c1)C(=O)CCl` (centres unmarked) [5-K12, 2-chloro-N-[(4-chloro-3-fluorophenyl)methyl]-N-(2-hydroxypropyl)acetamide], the viability at 48 h, 25 µM was determined as 0.478%.
Next, `Cc1ccc(N(C(=O)CCl)C2C=CS(=O)(=O)C2)cc1` (centres unmarked) [5-K13, 2-chloro-N-(1,1-dioxo-2,3-dihydro-1lambda6-thiophen-3-yl)-N-(4-methylphenyl)acetamide]: 0.562%; `CC(NC(=O)CCl)C(=O)N1CCS(=O)(=O)CC1` (centres unmarked) [5-K14, 2-chloro-N-[1-(1,1-dioxo-1lambda6-thiomorpholin-4-yl)-1-oxopropan-2-yl]acetamide]: 86.7%.
Next, `Cc1cc(C)c(NC(=O)C(C)Cl)c(C)c1` (centres unmarked) [5-K15, 2-chloro-N-(2,4,6-trimethylphenyl)propanamide]: 140%; `NS(=O)(=O)c1cccc2cc(NC(=O)CCl)ccc12` [5-K16, 2-chloro-N-(5-sulfamoylnaphthalen-2-yl)acetamide]: 1.61%; `Cc1nc(-c2cccc(NC(=O)CCl)c2)cs1` [5-K17, 2-chloro-N-[3-(2-methyl-1,3-thiazol-4-yl)phenyl]acetamide]: 13.2%.
Next, `O=C(CCl)N1CCC(Cc2nc(-c3ccc(F)cn3)no2)CC1` [5-K18, 2-chloro-1-(4-{[3-(5-fluoropyridin-2-yl)-1,2,4-oxadiazol-5-yl]methyl}piperidin-1-yl)ethan-1-one]: 1.83%.
On to `CC(Cl)C(=O)N(Cc1ccccc1)Cc1ccccc1` (centres unmarked) [5-K19, N,N-dibenzyl-2-chloropropanamide], for which the viability at 48 h, 25 µM worked out at 82.1%.
Then `Cc1ccc(C)c(CN(CCO)C(=O)CCl)c1` [5-K20, 2-chloro-N-[(2,5-dimethylphenyl)methyl]-N-(2-hydroxyethyl)acetamide], with 2.44%.
In the case of `CC(Cl)C(=O)N1CCC(Cc2ccccc2)CC1` (centres unmarked) [5-K21, 1-(4-benzylpiperidin-1-yl)-2-chloropropan-1-one], the viability at 48 h, 25 µM worked out at 86.2%.
As for `O=C(CCl)Nc1ccc(S(=O)(=O)Nc2ccccc2)cc1` [5-K22, 2-chloro-N-[4-(phenylsulfamoyl)phenyl]acetamide], the viability at 48 h, 25 µM worked out at 1.09%.
Then `O=C(CCl)N(Cc1ccccc1)Cc1cc2n(n1)CCCC2` [5-L03, N-benzyl-2-chloro-N-({4H,5H,6H,7H-pyrazolo[1,5-a]pyridin-2-yl}methyl)acetamide], with 0.904%; and `O=C(CCl)N1N=C(c2ccc(Cl)cc2)CC1c1ccco1` (centres unmarked) [5-L04, 2-chloro-1-[3-(4-chlorophenyl)-5-(furan-2-yl)-4,5-dihydro-1H-pyrazol-1-yl]ethan-1-one], with -0.215%; and `C[C@H]1CN(C(=O)CCl)CCN1C(=O)c1cscn1` [5-L05, 2-chloro-1-[(3S)-3-methyl-4-(1,3-thiazole-4-carbonyl)piperazin-1-yl]ethan-1-one], with 2.69%.
As for `O=C(CCl)NCc1ccccc1CN1CCOCC1` [5-L06, 2-chloro-N-({2-[(morpholin-4-yl)methyl]phenyl}methyl)acetamide hydrochloride], the viability at 48 h, 25 µM is 1.46%.
Then `CCN(Cc1ccc2c(c1)OCO2)C(=O)CCl` [5-L07, N-[(1,3-dioxaindan-5-yl)methyl]-2-chloro-N-ethylacetamide], with 0.477%; and `O=C(CCc1ccccc1)NC1CCN(C(=O)CCl)CC1` [5-L08, N-[1-(2-chloroacetyl)piperidin-4-yl]-3-phenylpropanamide], with 1.18%; and `O=C(CCl)NCCc1cccs1` [5-L09, 2-chloro-N-[2-(thiophen-2-yl)ethyl]acetamide], with 90.7%.
On to `CC(Cl)C(=O)Nc1ccccc1F` (centres unmarked) [5-L10, 2-chloro-N-(2-fluorophenyl)propanamide], for which the viability at 48 h, 25 µM turned out to be 99.2%.
Next, `CC(NC(=O)CCl)c1cc(F)ccc1N(C)C` (centres unmarked) [5-L11, 2-chloro-N-{1-[2-(dimethylamino)-5-fluorophenyl]ethyl}acetamide]: 9.52%.
As for `CC(Cl)C(=O)Nc1cccc(S(=O)(=O)N2CCCCC2)c1` (centres unmarked) [5-L12, 2-chloro-N-[3-(piperidine-1-sulfonyl)phenyl]propanamide], the viability at 48 h, 25 µM turned out to be 98.7%.
Then `Cc1nn(CC(C)C)c(Cl)c1C1CCCN1C(=O)CCl` (centres unmarked) [5-L13, 2-chloro-1-{2-[5-chloro-3-methyl-1-(2-methylpropyl)-1H-pyrazol-4-yl]pyrrolidin-1-yl}ethan-1-one], with 0.964%.
Then `O=C(CCl)NCc1ccc(C(=O)N2CCOCC2)cc1` [5-L14, 2-chloro-N-{[4-(morpholine-4-carbonyl)phenyl]methyl}acetamide], with 67.7%; and `CC(Cl)C(=O)NC(C)c1cnn(CC2CCC2)c1` (centres unmarked) [5-L15, 2-chloro-N-{1-[1-(cyclobutylmethyl)-1H-pyrazol-4-yl]ethyl}propanamide], with 108%; and `O=C(CCl)NC(c1ccccc1)C1CC1` (centres unmarked) [5-L16, 2-chloro-N-[cyclopropyl(phenyl)methyl]acetamide], with 116%.
Then `CC(Cl)C(=O)N(C)Cc1ccnn1C` (centres unmarked) [5-L17, 2-chloro-N-methyl-N-[(1-methyl-1H-pyrazol-5-yl)methyl]propanamide], with 134%; and `Cc1nc(C#N)c(N2CCN(C(=O)CCl)CC2)o1` [5-L18, 5-[4-(2-chloroacetyl)piperazin-1-yl]-2-methyl-1,3-oxazole-4-carbonitrile], with 1.74%.
For the compound `CC(Cl)C(=O)Nc1ccc2oc(=O)n(CCN(C)C)c2c1` (centres unmarked) [5-L19, 2-chloro-N-{3-[2-(dimethylamino)ethyl]-2-oxo-2,3-dihydro-1,3-benzoxazol-5-yl}propanamide], the viability at 48 h, 25 µM turned out to be 109%.
Next, `COc1ccccc1NC(=O)C(C)Cl` (centres unmarked) [5-L20, 2-chloro-N-(2-methoxyphenyl)propanamide]: 91.3%; `CC(Cl)C(=O)NCc1conc1C1CCC1` (centres unmarked) [5-L21, 2-chloro-N-[(3-cyclobutyl-1,2-oxazol-4-yl)methyl]propanamide]: 101%; `CC(Cl)C(=O)Nc1ncc(C(F)(F)F)cc1Cl` (centres unmarked) [5-L22, 2-chloro-N-[3-chloro-5-(trifluoromethyl)pyridin-2-yl]propanamide]: 105%.
For the compound `CC(Cl)C(=O)NCCN1C(=O)CSC1=O` (centres unmarked) [5-M03, 2-chloro-N-[2-(2,4-dioxo-1,3-thiazolidin-3-yl)ethyl]propanamide], the viability at 48 h, 25 µM stood at 87.2%.
Next, `CC(c1cnn(C)c1)N(C)C(=O)CCl` (centres unmarked) [5-M04, 2-chloro-N-methyl-N-[1-(1-methyl-1H-pyrazol-4-yl)ethyl]acetamide]: 1.55%; `C=CCN(Cc1ccc(Cl)s1)C(=O)CCl` [5-M05, 2-chloro-N-[(5-chlorothiophen-2-yl)methyl]-N-(prop-2-en-1-yl)acetamide]: 0.327%.
As for `CC(NC(=O)CCl)C(=O)N1CCCCC1C` (centres unmarked) [5-M06, 2-chloro-N-[1-(2-methylpiperidin-1-yl)-1-oxopropan-2-yl]acetamide], the viability at 48 h, 25 µM came out at 104%.
Then `Cc1ccc(NC(=O)C2CSCN2C(=O)CCl)c(C)c1` (centres unmarked) [5-M07, 3-(2-chloroacetyl)-N-(2,4-dimethylphenyl)-1,3-thiazolidine-4-carboxamide], with 0.0812%.
Next, `Cc1csc(COC2CCN(C(=O)CCl)C2)n1` (centres unmarked) [5-M08, 2-chloro-1-{3-[(4-methyl-1,3-thiazol-2-yl)methoxy]pyrrolidin-1-yl}ethan-1-one]: 1.8%; `O=C(CCl)NC1CCSc2ccc(F)cc21` (centres unmarked) [5-M09, 2-chloro-N-(6-fluoro-3,4-dihydro-2H-1-benzothiopyran-4-yl)acetamide]: 0.504%; `O=C(CCl)N1CCCC1c1nc(Cc2ccc(F)cc2)no1` (centres unmarked) [5-M10, 2-chloro-1-(2-{3-[(4-fluorophenyl)methyl]-1,2,4-oxadiazol-5-yl}pyrrolidin-1-yl)ethan-1-one]: 0.55%.
Next, `O=C(CCl)N1C2CCC1c1ccccc12` [5-M11, 1-{11-azatricyclo[6.2.1.0,2,7]undeca-2,4,6-trien-11-yl}-2-chloroethan-1-one]: -0.105%; `CC(C)C(C)N(Cc1ccns1)C(=O)CCl` (centres unmarked) [5-M12, 2-chloro-N-(3-methylbutan-2-yl)-N-[(1,2-thiazol-5-yl)methyl]acetamide]: 9.67%.
`O=C(CCl)NC(c1ccccc1)c1nccs1` (centres unmarked) [5-M13, 2-chloro-N-[phenyl(1,3-thiazol-2-yl)methyl]acetamide]: the viability at 48 h, 25 µM came to 2.38%.
Next, `Cc1ccc(F)c(N2CCC(NC(=O)CCl)CC2)c1` [5-M14, 2-chloro-N-[1-(2-fluoro-5-methylphenyl)piperidin-4-yl]acetamide]: 134%; `CC(Cl)C(=O)NC(C)c1ccc(Cl)cc1Cl` (centres unmarked) [5-M15, 2-chloro-N-[1-(2,4-dichlorophenyl)ethyl]propanamide]: 69%.
